The subject of this test is C. albicans ATCC 10231. The test is described as follows: Biofilm formation (crystal violet). The class given is cell-based, Candida albicans. The settings on record: 2×MIC to ¼×MIC (128-16 μg/mL), 48 h. As to the method: The effect of compound 1 on biofilm formation of C. albicans ATCC 10231 was evaluated through quantification of total biomass by crystal violet staining. […] A control with appropriate concentration of DMSO, as well as a negative control (RPMI alone), were included. Sterile 96-well flat-bottomed untreated polystyrene microtiter plates were used. After a 48 h incubation at 35° C., the biofilms were stained with 1% (v/v) crystal violet for 5 min. The stain was solubilized with 33% (v/v) acetic acid and the biofilm biomass was quantified by measuring the absorbance of each sample at 570 nm in a microplate reader (Thermo Scientific Multiskan® EX, Thermo Fisher Scientific, Waltham, MA, USA). The background absorbance (RPMI without inoculum) was subtracted, and the data are presented as percentage of control. Three independent assays were performed in triplicate for each experimental condition.

For `C[C@H](CCC(=O)NCCN)[C@H]1CC[C@H]2[C@@H]3CC[C@@H]4C[C@H](O)CC[C@]4(C)[C@H]3C[C@H](O)[C@]12C` [Compound 1, (R)—N-(2-aminoethyl)-4-((3R,5R,8R,9S,10S,12S,13R,14S,17R)-3,12-dihydroxy-10,13-dimethylhexadecahydro-1H-cyclopenta[a]phenanthren-17-yl) pentanamida], the “biofilm formation (in words)” value is “significant inhibition of biofilm formation”.

The record behind these values is patent US20250002450A1, “CATIONIC STEROID COMPOUNDS, METHOD OF OBTAINING THEREOF, FORMULATIONS COMPRISING THEREOF AND THEIR USES” (UNIVERSIDADE DO PORTO, priority 2021, published 2025).
